Assay results reported in PMC11864979, “First-in-class ultralong-target-residence-time p38α inhibitors as a mitosis-targeted therapy for colorectal cancer” (Nature Cancer, 2025).
Several values for one entry are separate records, joined by “and”; a condition that tells them apart may be missing. Equal values may be shown once. Read-outs that look alike come from different tables or passages of the source.

Columns and labels:
340 wild-type kinases [1] = target: T1, 340 wild-type kinases (Homo sapiens, UniProt Q96KB5); experiment: selectivity profiling in a panel of 340 wild-type kinases (Reaction Biology Europe); type: binding
T1 construct: purchased Reaction Biology Europe
T1 sequence (Q96KB5 1-322): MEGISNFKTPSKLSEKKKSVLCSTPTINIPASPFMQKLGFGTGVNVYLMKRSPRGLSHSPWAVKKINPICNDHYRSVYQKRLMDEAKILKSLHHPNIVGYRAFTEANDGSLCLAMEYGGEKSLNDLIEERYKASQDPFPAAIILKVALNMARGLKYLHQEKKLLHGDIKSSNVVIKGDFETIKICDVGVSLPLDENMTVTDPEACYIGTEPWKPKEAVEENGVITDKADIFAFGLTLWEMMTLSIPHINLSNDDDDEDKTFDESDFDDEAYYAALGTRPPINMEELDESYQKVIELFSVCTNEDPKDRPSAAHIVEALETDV

KAP^2D cells = experiment: cell size and DNA content analysis in KAP^2D cells (flow cytometry); type: cell-based, mouse; conditions: 1 µM, 1 day
Procedure: For DNA content analysis, cells were fixed with ethanol, washed and resuspended in PBS containing 50 µg ml^−1 propidium iodide (Invitrogen) and 250 µg ml^−1 RNase A (Qiagen). Apoptosis was analyzed with the FITC annexin V apoptosis detection kit (Biolegend). Both measurements were performed with FACS Canto II (BD) and physical parameters were used to exclude cell debris and cell doublets.

[2] = target: T2, recombinant human active p38α protein, MK2 and Wee1 (Homo sapiens, UniProt Q16539); experiment: p38α–Wee1 kinase assay (western blot); type: biochemical; conditions: 1 µM
T2 construct: purchased Abcam (p38α, MK2); Novus Biologicals (Wee1) ab271647; ab79910; H00007465-P01
T2 sequence (Q16539 whole entry): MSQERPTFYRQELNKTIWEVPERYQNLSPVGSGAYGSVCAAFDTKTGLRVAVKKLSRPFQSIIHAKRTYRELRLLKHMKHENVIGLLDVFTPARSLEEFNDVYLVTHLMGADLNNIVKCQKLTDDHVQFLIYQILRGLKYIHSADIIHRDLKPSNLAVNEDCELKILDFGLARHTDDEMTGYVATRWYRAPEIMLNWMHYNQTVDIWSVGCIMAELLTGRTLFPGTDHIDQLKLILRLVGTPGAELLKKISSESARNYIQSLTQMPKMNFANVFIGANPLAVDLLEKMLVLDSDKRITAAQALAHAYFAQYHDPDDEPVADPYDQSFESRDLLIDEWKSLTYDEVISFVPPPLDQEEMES
Procedure: Briefly, 200 ng of corresponding proteins were preincubated with 1 µM 2015 or DMSO in a kinase assay buffer (Abcam, ab189135; total volume, 100 µL) for 30 min at 37 °C. Kinase activity was induced with 20 µM ATP. Following a 30-min incubation at 37 °C, the reaction was stopped by protein inactivation (95 °C, 5 min in Laemmli buffer). The antibodies and dilutions for immunoblotting are listed in the Nature Portfolio Reporting Summary.

[3] = cell viability after 2015, Navitoclax or 2015 + Navitoclax (Fig. 5f); type: cell-based; design: concentration or dose not given beside the values; conditions: replicates
340 wild-type kinases [4] = target: T3, 340 wild-type kinases (Homo sapiens, UniProt Q9UPE1); experiment: selectivity profiling in a panel of 340 wild-type kinases (Reaction Biology Europe); type: binding; conditions: STK23; 1 µM; read-out: residual activity
T3 construct: purchased Reaction Biology Europe
T3 sequence (Q9UPE1 whole entry): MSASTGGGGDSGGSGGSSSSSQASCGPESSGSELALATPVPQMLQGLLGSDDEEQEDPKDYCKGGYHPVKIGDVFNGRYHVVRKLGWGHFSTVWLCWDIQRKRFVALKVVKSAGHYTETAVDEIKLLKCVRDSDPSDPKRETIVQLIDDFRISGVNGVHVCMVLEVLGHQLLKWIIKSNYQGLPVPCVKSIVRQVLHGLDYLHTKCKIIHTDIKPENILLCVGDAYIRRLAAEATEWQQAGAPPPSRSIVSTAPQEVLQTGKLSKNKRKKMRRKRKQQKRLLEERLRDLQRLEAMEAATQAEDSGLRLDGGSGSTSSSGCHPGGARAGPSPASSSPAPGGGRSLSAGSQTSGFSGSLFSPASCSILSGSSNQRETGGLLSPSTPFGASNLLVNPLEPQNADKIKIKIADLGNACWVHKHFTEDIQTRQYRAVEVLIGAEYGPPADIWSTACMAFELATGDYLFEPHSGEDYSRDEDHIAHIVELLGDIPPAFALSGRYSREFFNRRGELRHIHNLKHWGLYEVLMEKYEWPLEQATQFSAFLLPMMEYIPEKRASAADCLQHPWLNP
Description: (§1) Potential interactions between 2015 and 340 wild-type kinases were checked by means of a competition binding assay performed by Reaction Biology Europe (Supplementary Table 15).

340 wild-type kinases [5] = target: T4, 340 wild-type kinases (Homo sapiens, UniProt Q8NG66); experiment: as above; type: binding; conditions: 0.2 µM 2015; read-out: NEK11 residual activity
T4 construct: purchased Reaction Biology Europe
T4 sequence (Q8NG66 1-645): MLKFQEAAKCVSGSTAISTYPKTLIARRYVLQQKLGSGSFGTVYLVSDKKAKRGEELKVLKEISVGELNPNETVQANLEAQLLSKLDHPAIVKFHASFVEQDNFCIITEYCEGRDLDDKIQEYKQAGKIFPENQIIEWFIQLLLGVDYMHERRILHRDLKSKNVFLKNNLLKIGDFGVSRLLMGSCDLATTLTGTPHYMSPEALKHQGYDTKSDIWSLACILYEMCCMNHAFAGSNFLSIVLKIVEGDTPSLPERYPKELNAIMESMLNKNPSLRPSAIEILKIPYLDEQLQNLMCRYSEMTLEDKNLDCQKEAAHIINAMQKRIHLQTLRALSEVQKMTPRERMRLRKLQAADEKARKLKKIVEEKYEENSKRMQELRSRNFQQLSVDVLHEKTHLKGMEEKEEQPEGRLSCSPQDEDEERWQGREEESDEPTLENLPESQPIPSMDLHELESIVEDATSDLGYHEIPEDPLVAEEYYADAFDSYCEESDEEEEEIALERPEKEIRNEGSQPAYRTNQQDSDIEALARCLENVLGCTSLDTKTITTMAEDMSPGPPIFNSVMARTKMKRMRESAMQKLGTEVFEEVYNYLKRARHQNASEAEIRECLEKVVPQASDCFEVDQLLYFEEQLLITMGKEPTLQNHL
Description: as §1

immune cells = experiment: FACS quantification of immune cells in blood, spleen, liver and tumors of treated mice;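 as to CD4+, % of CD3+ cells: blood spleen or tumors of KAP liver metastasis mice after 4 days treatment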;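 as to CD69+ % of CD4+ T cells: tumor-free livers or KAP liver tumors after 4 days treatment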;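 as to CD69+ % of CD8+ T cells: tumor-free livers or KAP liver tumors after 4 days treatment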;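 as to CD69+ % of T cells: tumor-free livers or KAP liver tumors after 4 days treatment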;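 as to CD8+, % of CD3+ cells: blood spleen or tumors of KAP liver metastasis mice after 4 days treatment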; type: in vivo, mouse; conditions: for CD4+, % of CD3+ cells / CD8+, % of CD3+ cells / CD69+ % of CD4+ T cells / CD69+ % of CD8+ T cells / CD69+ % of T cells: single animals; for CD4+, % of CD3+ cells / CD8+, % of CD3+ cells: Fig. 6f; for CD69+ % of CD4+ T cells / CD69+ % of CD8+ T cells / CD69+ % of T cells: Fig. 6g; for B cells, % of living cells / CD4+ T cells, % of living cells / CD8+ T cells, % of living cells / Dendritic cells, % of living cells / Granulocytes, % of living cells / Monocytes, % of living cells / NK cells, % of living cells / T cells, % of living cells: spleen, 4 d of treatment
Procedure: To determine immune cells, cell suspensions of peripheral blood, spleen, liver or tumors were prepared. Cells were lysed with ammonium chloride buffer ([…], 0.1 mM EDTA and 0.150 mM KHCO3) to eliminate erythrocytes and were stained with antibodies from Biolegend and the live–dead fixable aqua dead cell stain kit (Thermo Fisher Scientific; dilution: 1:1,000). All used antibodies and dilutions are listed in the Nature Portfolio Reporting Summary. Cells were analyzed with the LSR Fortessa (BD). Samples were gated on single viable cells and the percentage of NK cells (NK1.1^+CD3^−), T cells (CD3^+NK1.1^−), CD4^+ T cells (CD3^+NK1.1^−CD4^+CD8a^−), CD8^+ T cells (CD3^+NK1.1^−CD8a^+CD4^−), B cells (CD3^−NK1.1^−CD19^+Ly6G^−), dendritic cells (CD3^−NK1.1^−CD19^−CD11c^+), monocytes (CD3^−NK1.1^−CD19^−CD11c^−Ly6Ghigh^+CD16/32low^+) and granulocytes (CD3^−NK1.1^−CD19^−CD11c^−Ly6G^+CD16/32high^+) was calculated.

CNC(=O)c1ccc2c(c1)C(=O)c1ccc(Nc3ccc(F)c(NC(=O)C4CC4)c3)cc1CC2 [Compound 2015]
remaining activity at 0.2 µM (340 wild-type kinases [1]; 0.2 µM 2015, read-out: PBK residual activity): 96.5%
remaining activity at 1 µM (340 wild-type kinases [1]; 1 µM 2015, read-out: PBK residual activity): 79.7%
remaining activity at 0.2 µM (340 wild-type kinases [1]; PBK, 0.2 µM, read-out: residual activity): 96.5%
remaining activity at 1 µM (340 wild-type kinases [1]; PBK, 1 µM, read-out: residual activity): 79.7%
DNA content (in words) (KAP^2D cells): strong induction of aneuploidy and polyploidy
p38α–MK2-mediated phosphorylation of Wee1 at S642 (in words) [2]: blocked
Cell viability [3]: 58.51% and 44.25% and 42.17%
remaining activity at 1 µM (340 wild-type kinases [4]): 94.1%
remaining activity at 0.2 µM (340 wild-type kinases [5]): 91.3%
CD4^+ T cells in CRC liver metastases (in words) (immune cells; 4 days of treatment): increases the number of CD4^+ T cells
CD4+, % of CD3+ cells (immune cells; Blood): 59.0% and 54.5% and 53.0% and 56.9%
CD8+, % of CD3+ cells (immune cells; Blood): 35.8% and 35.1% (2×) and 39.0%
CD69+ % of CD4+ T cells (immune cells; Liver): 11.90% and 8.89% and 6.59% and 10.70%
CD69+ % of CD8+ T cells (immune cells; Liver): 5.92% and 8.71% and 6.52% and 6.93%
CD69+ % of T cells (immune cells; Liver): 9.86% and 8.16% and 6.40% and 10.30%
CD4+, % of CD3+ cells (immune cells; Spleen): 67.8% and 63.7% and 64.1% and 65.2%
CD8+, % of CD3+ cells (immune cells; Spleen): 25.5% and 28.8% and 28.3% and 27.0%
CD4+, % of CD3+ cells (immune cells; Tumor): 74.4% and 79.8% and 62.9%
CD8+, % of CD3+ cells (immune cells; Tumor): 13.6% and 8.5% and 20.0%
CD69+ % of CD4+ T cells (immune cells; Tumor): 56.80% and 69.90% and 47.60%
CD69+ % of CD8+ T cells (immune cells; Tumor): 44.60% and 54.20% and 52.00%
CD69+ % of T cells (immune cells; Tumor): 49.80% and 60.30% and 42.10%
B cells, % of living cells (immune cells; healthy mice): 45.80% and 42.90% and 40.80% and 40.90%
CD4+ T cells, % of living cells (immune cells; healthy mice): 22.70% and 22.50% and 25.00% and 24.30%
CD8+ T cells, % of living cells (immune cells; healthy mice): 10.00% and 8.13% and 10.80%
Dendritic cells, % of living cells (immune cells; healthy mice): 2.32% and 3.09% and 2.65% and 2.11%
Granulocytes, % of living cells (immune cells; healthy mice): 4.12% and 5.18% and 4.35% and 4.21%
Monocytes, % of living cells (immune cells; healthy mice): 2.59% and 2.56% and 2.30% and 2.36%
NK cells, % of living cells (immune cells; healthy mice): 2.30% and 4.22% and 4.00% and 4.77%
T cells, % of living cells (immune cells; healthy mice): 35.20% and 32.90% and 37.90% and 36.50%
B cells, % of living cells (immune cells; tumor mice (KAP metastases)): 40.60% and 49.20% and 45.00% and 44.10%
CD4+ T cells, % of living cells (immune cells; tumor mice (KAP metastases)): 26.10% and 18.70% and 20.10% and 20.40%
CD8+ T cells, % of living cells (immune cells; tumor mice (KAP metastases)): 9.80% and 8.43% and 8.87% and 8.45%
Dendritic cells, % of living cells (immune cells; tumor mice (KAP metastases)): 3.14% and 2.58% and 3.53% and 2.01%
Granulocytes, % of living cells (immune cells; tumor mice (KAP metastases)): 3.71% and 4.06% and 4.14% and 4.54%
Monocytes, % of living cells (immune cells; tumor mice (KAP metastases)): 3.31% and 3.61% and 4.85% and 6.16%
NK cells, % of living cells (immune cells; tumor mice (KAP metastases)): 3.40% and 4.06% and 3.95% and 4.77%
T cells, % of living cells (immune cells; tumor mice (KAP metastases)): 38.40% and 29.30% and 31.40% and 31.30%
